Data from the NIST ThermoML archive (doi:10.1016/j.fluid.2005.03.023).
± gives the expanded uncertainty stated by the source.

Key:
[1] = Crystal; DTA
[2] = Molar enthalpy of transition or fusion; conditions: Crystal; DSC

Normal melting temperature [1] [°C] | Molar enthalpy of transition or fusion [2] [kcal/mol] | Compound
93.6 ± 0.5 | 5.58 ± 0.165 | CC(=O)c1cccc(O)c1 [1-(3-hydroxyphenyl)ethanone]
108.2 ± 0.5 | 4.07 ± 0.127 | CC(=O)c1ccc(O)cc1 [4'-hydroxyacetophenone]
105.1 ± 0.5 | 4.67 ± 0.141 | CC(=O)c1ccc(N)cc1 [4-acetylaniline]
113.8 ± 0.5 | 5.12 ± 0.153 | CC(=O)Nc1ccccc1 [N-phenylethanamide]
